EP2468728A1, “2-(1-phenyl-4,5,6,7-tetrahydro-1H-indazol-4-YL)ethylamine derivatives useful as sigma receptor inhibitors” (Laboratorios del. Dr. Esteve, S.A., priority 2010, dated 2012)

Biological target: σ1-receptor (Cavia porcellus, UniProt Q60492)
Assay: sigma-1 receptor binding assay, [3H](+)-pentazocine, brain membranes
Settings: 1µM compound; [3H](+)-pentazocine 0.5 nM; guinea pig brain membranes; 37°C for 150 min; read-out: binding sigma-1 % Inh (1µM)
Method: Some representative compounds of the invention were tested for their activity as sigma (sigma-1) inhibitors. The following protocols were followed:
Brain membrane preparation and binding assays for the σ1-receptor were performed as described (DeHaven-Hudkins et al., 1992) with some modifications. In brief, guinea pig brains were homogenized in 10 vols. (w/v) of Tris-HCl 50 mM 0.32 M sucrose, pH 7.4, with a Kinematica Polytron PT 3000 at 15000 r.p.m. for 30 s. The homogenate was centrifuged at 1000g for 10 min at 4°C and the supernatants collected and centrifuged again at 48000g for 15 min at 4°C. The pellet was resuspended in 10 volumes of Tris-HCl buffer (50 mM, pH 7.4), incubated at 37°C for 30 min, and centrifuged at 48000g for 20 min at 4°C. Following this, the pellet was resuspended in fresh Tris-HCl buffer (50 mM, pH 7.4) and stored on ice until use.
Each assay tube contained 10 µL of [^3H](+)-pentazocine (final concentration of 0.5 nM), 900 µL of the tissue suspension to a final assay volume of 1 mL and a final tissue concentration of approximately 30 mg tissue net weight/mL. Non-specific binding was defined by addition of a final concentration of 1 µM haloperidol. All tubes were incubated at 37°C for 150 min before termination of the reaction by rapid filtration over Schleicher & Schuell GF 3362 glass fibre filters [previously soaked in a solution of 0,5% polyethylenimine for at least 1 h]. Filters were then washed with four times with 4 mL of cold Tris-HCl buffer (50 mM, pH 7.4). Following addition of scintillation cocktail, the samples were allowed to equilibrate overnight. The amount of bound radioactivity was determined by liquid scintillation spectrometry using a Wallac Winspectral 1414 liquid scintillation counter. Protein concentrations were determined by the method of Lowry et al. (1951).

Chain of σ1-receptor (Q60492 whole entry): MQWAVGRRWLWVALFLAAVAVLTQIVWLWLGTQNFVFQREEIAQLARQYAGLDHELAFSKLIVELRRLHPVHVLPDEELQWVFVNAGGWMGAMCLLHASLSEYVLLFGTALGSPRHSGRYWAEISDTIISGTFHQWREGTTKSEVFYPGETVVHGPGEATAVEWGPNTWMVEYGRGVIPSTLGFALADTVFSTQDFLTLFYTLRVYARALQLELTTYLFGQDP

Row | SMILES | inhibition at 1 µM
1 | [O-][N+]1(CC[C@@H]2CCCc3c2cnn3-c2ccccc2)CCOCC1 [Example 5, (S)-4-(2-(1-phenyl-4,5,6,7-tetrahydro-1H-indazol-4-yl)ethyl)morpholine N-oxide] | 98%
2 | [O-][N+]1(CC[C@H]2CCCc3c2cnn3-c2ccccc2)CCOCC1 [Example 3, (R)-4-(2-(1-phenyl-4,5,6,7-tetrahydro-1H-indazol-4-yl)ethyl)morpholine N-oxide] | 76.4%
3 | [O-][N+]1(CCC2CCCc3c2cnn3-c2ccccc2)CCOCC1 (stereo not drawn) [Example 1, 4-(2-(1-phenyl-4,5,6,7-tetrahydro-1H-indazol-4-yl)ethyl)morpholine N-oxide] | 60%
